The target in assay [1] is T1, PXL2LRR (extracellular LRR domain protein of PXL2) (Arabidopsis thaliana, UniProt Q9M0G7).
T1 construct: The LRR domain of PXL2 (residues 1-633, PXL2LRR) from Arabidopsis with an engineered; 6xHis (C); made in house; host or cells: High Five insect cells (baculovirus, pFastBac 1)
Briefly: biochemical. It is filed as binding.
Experimental: (C) Measurement of the binding affinity between PXL2^LRR and CLE42 by ITC. Top panel: twenty injections of CLE42 solution were titrated into PXL2^LRR in the ITC cell. The area of each injection peak corresponds to the total heat released for that injection. Bottom panel: the binding isotherm for PXL2^LRR-CLE42 interaction. The integrated heat is plotted against the molar ratio between CLE42 and PXL2^LRR. […] The assay was performed as described in (C).

The target in assay [2] is extracellular LRR domain protein of PXL2 (PXL2^LRR) (Arabidopsis thaliana). Briefly: ITC; twenty injections of peptide solution titrated into PXL2^LRR in the ITC cell. (In ITC the heat of successive injections is recorded.)

Where a SMILES comes first, the peptide text is derived from it. Where no end group is shown, it is not given here. [ ]: non-standard residue; d: D form. Hyp = O=C(O)[C@@H]1C[C@@H](O)CN1

T1 sequence (Q9M0G7 24-633): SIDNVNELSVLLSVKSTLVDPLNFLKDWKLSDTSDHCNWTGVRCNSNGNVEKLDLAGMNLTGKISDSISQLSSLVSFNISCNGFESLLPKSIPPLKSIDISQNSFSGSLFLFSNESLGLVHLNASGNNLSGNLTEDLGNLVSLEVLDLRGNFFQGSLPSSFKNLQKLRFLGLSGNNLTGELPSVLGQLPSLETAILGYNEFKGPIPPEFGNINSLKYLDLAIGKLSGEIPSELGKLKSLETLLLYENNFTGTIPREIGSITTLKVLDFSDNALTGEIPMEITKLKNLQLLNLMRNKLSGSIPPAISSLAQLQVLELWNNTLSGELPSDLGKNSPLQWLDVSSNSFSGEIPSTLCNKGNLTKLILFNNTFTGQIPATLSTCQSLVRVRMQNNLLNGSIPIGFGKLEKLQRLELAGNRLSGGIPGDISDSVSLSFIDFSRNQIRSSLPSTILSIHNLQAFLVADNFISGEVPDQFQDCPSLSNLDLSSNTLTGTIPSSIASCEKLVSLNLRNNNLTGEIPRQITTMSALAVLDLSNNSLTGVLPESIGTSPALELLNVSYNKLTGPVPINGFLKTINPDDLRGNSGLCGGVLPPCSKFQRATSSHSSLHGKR

The term Kd denotes the constant that tells how readily two partners part at equilibrium. A higher Kd goes with lower affinity. As to `CC[C@H](C)[C@H](NC(=O)[C@@H]1CCCN1C(=O)[C@H](CC(N)=O)NC(=O)[C@@H]1C[C@@H](O)CN1C(=O)CNC(=O)[C@H](CO)NC(=O)[C@@H]1C[C@@H](O)CN1C(=O)[C@@H](NC(=O)[C@H](CCC(=O)O)NC(=O)[C@@H](N)Cc1c[nH]cn1)C(C)C)C(=O)N[C@@H](CO)C(=O)N[C@@H](CC(N)=O)C(=O)O` [CLE41, His-Glu-Val-Hyp-Ser-Gly-Hyp-Asn-Pro-Ile-Ser-Asn] (H-HEV[Hyp]SG[Hyp]NPISN-OH), the equilibrium dissociation constant (Kd) in assay [1] amounted to 10 µM.

In assay [1], `CC[C@H](C)[C@H](NC(=O)[C@@H]1CCCN1C(=O)[C@H](CC(N)=O)NC(=O)[C@@H]1C[C@@H](O)CN1C(=O)CNC(=O)[C@H](CO)NC(=O)[C@@H]1C[C@@H](O)CN1C(=O)[C@@H](NC(=O)CNC(=O)[C@@H](N)Cc1c[nH]cn1)C(C)C)C(=O)N[C@@H](CO)C(=O)N[C@@H](CC(N)=O)C(=O)O` [CLE42, His-Gly-Val-Hyp-Ser-Gly-Hyp-Asn-Pro-Ile-Ser-Asn] (H-HGV[Hyp]SG[Hyp]NPISN-OH) came in with a Kd of 2.75 µM.

As for “RLV[Hyp]SG[Hyp]NPLHH [CLE13, negative control]”, in assay [1] (ITC200, 25 °C, 10 mM Bis-Tris pH 6.0, 100 mM NaCl, approximately 0.5 mM peptide, 0.05 mM PXL2LRR, repeated at least three times, negative control), the “interaction with PXL2LRR by ITC” value is on record as “no detectable interaction”.

In turn, HEV[Hyp]SG[Hyp]NPISN [CLE41/44 or TDIF (tracheary elements differentiation inhibitory factor)] returned a dissociation constant Kd in assay [2] of 10 µM.

HGV[Hyp]SG[Hyp]NPISN [CLE42] yielded a Kd in assay [2] of 2.75 µM.

(Values after PMC5546936, “CLE42 binding induces PXL2 interaction with SERK2” (Protein & Cell, 2017).)
